From US7635693B2, “Methods for preventing and treating cancer using N-thiolated β-lactam compounds and analogs thereof” (University of South Florida, priority 2002, dated 2009)
Where “and” joins values, the source holds several entries; their conditions need not be identical. Equal values may be shown once. Read-outs that look alike come from different tables or passages of the source.

What was measured:
caspase-3 [1] = conditions: LNCaP cells, 48 h, 50 μM
Description: To measure cell-free caspase-3 activity, whole cell extracts (20-30 μg) from untreated or treated LNCaP cells were incubated with 20 μM of the fluorogenic substrate caspase-3/caspase-7 (Ac-DEVD-AMC) for 30 min at 37° C. in 100 μl of assay buffer (50 mM Tris, pH 8.0).

caspase-3 [2] = assay: Cell-free caspase-3 activity assay on extracts of treated Jurkat T cells; assay type: cell-based, human
Description: Briefly, a prepared protein extract (20 μg) is incubated in a buffer containing 50 mM Tris/pH 8.0 along with each respective caspase substrate at 20 μM in a 96 well plate. The reaction mixture is incubated at 37° C. for 2 h.
A library of β-lactam analogs was screened for their ability to induce apoptosis. The screening procedure is accomplished by treating human Jurkat T cells with each compound at 50 μM for 8 hours. This is followed by preparation of cell lysates and measurement of apoptosis-specific caspase-3 activation (by cell-free caspase-3 activity assay) and PARP cleavage (by Western blotting).

Jurkat T cells [3] = assay: Flow cytometry cell cycle distribution and sub-G1 population, Jurkat T cells; assay type: cell-based, human; conditions: 50 μM
Description: Cell Death Differ 5:1062-75. At each time point, cells are harvested, counted, and washed twice with PBS. Cells (5×10^6) are suspended in 0.5 ml PBS, fixed in 5 ml of 70% ethanol for at least 2 h at −20° C., centrifuged, resuspended again in 1 ml of propidium iodide staining solution (50 μg propidium iodide, 100 units RNase A and 1 mg glucose per ml PBS), and incubated at room temperature for 30 minutes. The cells are then analyzed with FACScan (Becton Dickinson Immunocytometry, CA), ModFit LT and WinMDI V.2.8 cell cycle analysis software (Verity Software; Topsham, Me.). The cell cycle distribution is shown as the percentage of cells containing G1, S, G2, and M DNA judged by propidium iodide staining. The apoptotic population is determined as the percentage of cells with sub-G1 (<G1) DNA content.

Jurkat T cells [4] = assay type: cell-based, human; conditions: for loss of membrane permeability (trypan blue incorporation): 8 hours
Description: The trypan blue exclusion assay was performed by injecting 10 μl of cell suspension containing 0.2% trypan blue dye into a hemoicytometer and counting. Numbers of cells that absorbed the dye and those that excluded the dye are counted, from which the percentage of non-viable cell number to total cell number is calculated.

Jurkat T cells [5] = conditions: for inhibition of 3H-thymidine incorporation: Jurkat T cells
Description: Incorporation of ^3H-thymidine into cells was measured as disclosed in Smith D M and Dou Q P, 2001, Green tea polyphenol epigallocatechin inhibits DNA replication and consequently induces leukemia cell apoptosis. Int J Mol Med 7:645-52. Jurkat T cells are pre-treated with a selected lactam for the indicated number of hours, followed by co-incubation with 2 μl/ml of [methyl-^3H]-thymidine [80 Ci (1.5 TBq)/mMol] at 37° C. for 2 hours. After harvesting, the cell pellet is washed with PBS, resuspended in 0.5 ml of PBS and collected on a glass microfiber filter. The filter is then washed with 5 ml/filter of PBS, followed by 5 ml/filter of ice-cold 0.1N NaOH and 5 ml/filter of ethanol. The filters containing fixed DNA are dried, and the remaining radioactivity is measured on a scintillation counter.

MCF-7 cells = assay: MTT assay, MCF-7; assay type: cell-based, human; conditions: MCF-7, 50 μM, 24 hours
Description: (§1) MCF-7, MDA-MB-231, PC-3 and PCI-13 cells were grown to 50% confluency in a 24 well plate. […] A stock 5 mg/ml of MTT in serum-free media was then added to the cell cultures at a final concentration of 1 mg/ml, followed by a 3 hour incubation at 37° C. After cells crystallized, the media was removed and DMSO added to dissolve the metabolized MTT product. The absorbance was then measured on a Wallac Victor 1420 Multilabel counter at […].

MDA-MB-231 cells = assay: MTT assay, MDA-MB-231; assay type: cell-based, human; conditions: MDA-MB-231, 50 μM, 24 hours
Description: as §1

BID = conditions: Jurkat T cells, 50 μM
Description: Human Jurkat T cells were cultured in RPMI 1640, supplemented with 10% fetal calf serum, 100 units/ml of penicillin and 100 μg/ml of streptomycin. Human breast cancer MCF-7 and MDA-MB-231 cells, human prostate cancer PC-3 cells, and human head-and-neck cancer PCI-13 cells were grown in Dulbecco's modified Eagle's medium containing 10% fetal calf serum, penicillin and streptomycin. All the cell lines were maintained in a 5% CO2 atmosphere at 37° C. A whole cell extract was prepared as described previously (An et al., 1998). Briefly, cells are harvested, washed with PBS and homogenized in a lysis buffer (50 mM Tris-HCl, pH 8.0, 5 mM EDTA, 150 mM NaCl, 0.5% NP-40, 0.5 mM PMSF, and 0.5 mM dithiothreitol) for 30 min at 4° C. After that, the lysates are centrifuged at 14,000×g for 30 min and the supernatants are collected as whole cell extracts. Equal amounts of protein extract (50 μg) are resolved by SDS-polyacrylamide gel electrophoresis and then transferred to a nitrocellulose membrane (Schleicher & Schuell, Keene, N H) using a Semi-Dry Transfer System (BIO-RAD; Hercules, Calif.). The enhanced chemiluminescence (ECL) Western Blot analysis is then performed using specific antibodies to the proteins of interest.

COC1C(=O)N(SC)C1c1ccccc1Cl (racemic) [lactam 1]
increase in caspase-3 activity over control (caspase-3 [1]): 2.5 fold
time at which cell-free caspase-3 activity was first observed (caspase-3 [2]; 50 μM): 4 h
caspase-3 activation (caspase-3 [2]; 50 μM, 8 hours): greatest potency
increase of caspase-3 levels over untreated cells (caspase-3 [2]; 8 hours, 20 μM): 2 fold
increase of caspase-3 levels over untreated cells (caspase-3 [2]; 8 hours, 30 μM): 3 fold
increase of caspase-3 levels over untreated cells (caspase-3 [2]; 8 hours, 40 μM): 5 fold
increase of caspase-3 levels over untreated cells (caspase-3 [2]; 8 hours, 50 μM): 11 fold
apoptotic sub-G1 cell population (Jurkat T cells [3]; 2 to 4 hours): 2%
increase in S phase population (Jurkat T cells [3]; 2 to 4 hours): 2-3%
increase in S phase population (Jurkat T cells [3]; 6 to 12 hours): up to 13%
sub-G1 population (Jurkat T cells [3]; 6 to 12 hours): 5-16%
increase in S phase population (Jurkat T cells [3]; 5 hours): 21%
sub-G1 apoptotic population (Jurkat T cells [3]; 5 hours): 14%
sub-G1 population (Jurkat T cells [3]; 24 h): 30%
increase in S population (Jurkat T cells [3]; 24 hour): 20%
cell death (trypan blue) (Jurkat T cells [4]; 30 μM, 24 h): 42%
cell death (trypan blue) (Jurkat T cells [4]; 50 μM, 3 h): 11%
non-viable cell population (trypan blue) (Jurkat T cells [4]; 50 μM, 4 hours): 20%
trypan blue-positive cells (Jurkat T cells [4]; 50 μM, 6 h): 20%
non-viable cell population / cell death (trypan blue) (Jurkat T cells [4]; 50 μM, 24 h): 60% and ~52% and ~50%
loss of membrane permeability (trypan blue incorporation) (Jurkat T cells [4]; 50 μM): ~30%
loss of membrane permeability (trypan blue incorporation) (Jurkat T cells [4]; 60 μM): ~80%
loss of membrane permeability (trypan blue incorporation) (Jurkat T cells [4]; 20-40 μM): ~10%
inhibition of 3H-thymidine incorporation (Jurkat T cells [5]; 20 μM, 2 h pre-incubation + 2 hour co-incubation): 20%
inhibition of 3H-thymidine incorporation (Jurkat T cells [5]; 30 μM, 2 h pre-incubation + 2 hour co-incubation): 45%
inhibition of 3H-thymidine incorporation (Jurkat T cells [5]; 40 μM, 2 h pre-incubation + 2 hour co-incubation): 90%
inhibition of 3H-thymidine incorporation (Jurkat T cells [5]; 50 μM, added at the same time as 3H-thymidine, co-incubated 2 h): ~70%
inhibition of 3H-thymidine incorporation (Jurkat T cells [5]; 50 μM, pre-incubation 2 to 8 h, then 2 hour with 3H-thymidine): 95%
inhibition of 3H-thymidine incorporation (Jurkat T cells [5]; 50 or 60 μM, 2 h pre-incubation + 2 hour co-incubation): ~100%
IC50 (Jurkat T cells [5]; read-out: half-maximal inhibition value for incorporation of 3H-thymidine (IC50), intact Jurkat cells, total treatment 4 h): 32 µM
decrease of cellular viability (MTT) (MCF-7 cells): 80%
decrease of cellular viability (MTT) (MDA-MB-231 cells): 80%
time at which 15-kDa fragment of Bid was first observed (BID): 2 h
time of peak of 15-kDa fragment of Bid (BID): 6 h
